# Measured values reported in patent publication US20120088660A1, “Antifungal 1,2,4-triazolyl Derivatives” (BASF SE, priority 2009, published 2012).
# Tested on: Phakopsora pachyrhizi
# Test: Curative control of soy bean rust on soy beans (greenhouse test)
# Assay type: in vivo
# Conditions: 300 ppm aqueous preparation sprayed to run-off after inoculation (curative); soy bean seedlings; assessed after 14 days; untreated plants 60% infected
# Method: The spray soultions were prepared in several steps: The stock solution were prepared by adding a mixture of acetone and/or dimethylsulfoxide and the wetting agent/emulsifier Wettol, which is based on ethoxylated alkylphenoles, in a relation (volume) solvent-emulsifier of 99 to 1 to 25 mg of the compound to give a total of 10 ml. Water was then added to total volume of 100 ml. This stock solution was diluted with the described solvent-emulsifier-water mixture to the given concentration. 1. Curative Control of Soy Bean Rust on Soy Beans Caused by Phakopsora Pachyrhizi Leaves of pot-grown soy bean seedlings were inoculated with spores of Phakopsora pachyrhizi. To ensure the success of the artificial inoculation, the plants were transferred to a humid chamber with a relative humidity of about 95% and 20 to 24° C. for 24 h. The next day the plants were cultivated for 2 days in a greenhouse chamber at 23-27° C. and a relative humidity between 60 and 80%. Then the plants were sprayed to run-off with an aqueous suspension, containing the concentration of active ingredient or their mixture as described below. The plants were allowed to air-dry. Then the trial plants were cultivated for 14 days in a greenhouse chamber at 23-27° C. and a relative humidity between 60 and 80%. The extent of fungal attack on the leaves was visually assessed as % diseased leaf area.
row,Compound,"infection (extent of fungal attack on the leaves, visually assessed as % diseased leaf area)"
1,"CC(C)(C)C(O)(CCCCOc1ccccc1)Cn1nc[nH]c1=S (stereo not drawn) [Example 1, 1-(2-tert-Butyl-2-hydroxy-6-phenoxyhexyl)-1H-1,2,4-triazole-5(4H)-thione]",0%
2,"CC(C)(C)C(O)(CCCCOc1ccccc1F)Cn1nc[nH]c1=S (stereo not drawn) [Example 2, 1-[2-tert-Butyl-6-(2-fluorophenoxy)-2-hydroxyhexyl]-1H-1,2,4-triazole-5(4H)-thione]",0%
3,"CC(C)(C)C(O)(CCCCOc1ccc(F)cc1F)Cn1nc[nH]c1=S (stereo not drawn) [Example 3, 1-[2-tert-Butyl-6-(2,4-difluorophenoxy)-2-hydroxyhexyl]-1H-1,2,4-triazole-5(4H)-thione]",0%
4,"CC(C)(C)C(O)(CCCCOc1ccccc1Cl)Cn1nc[nH]c1=S (stereo not drawn) [Example 4, 1-[2-tert-Butyl-6-(2-chlorophenoxy)-2-hydroxyhexyl]-1H-1,2,4-triazole-5(4H)-thione]",0%
5,CC(C)(C)C(O)(CCCCOc1ccc(Cl)cc1Cl)Cn1nc[nH]c1=S (stereo not drawn) [Example 5],0%
6,"CC(C)(C)C(O)(CCCCOc1cccc(Cl)c1)Cn1nc[nH]c1=S (stereo not drawn) [Example 6, 1-[2-tert-Butyl-6-(3-chlorophenoxy)-2-hydroxyhexyl]-1H-1,2,4-triazole-5(4H)-thione]",0%
7,"CC(C)(C)C(O)(CCCCCOc1ccccc1F)Cn1nc[nH]c1=S (stereo not drawn) [Example 11, 1-[2-tert-butyl-7-(2-fluorophenoxy)-2-hydroxyheptyl]-1H-1,2,4-triazole-5(4H)-thione]",0%
8,"CC(C)(C)C(O)(CCCCCOc1ccc(F)cc1F)Cn1nc[nH]c1=S (stereo not drawn) [Example 13, 1-[2-tert-butyl-7-(2,4-difluorophenoxy)-2-hydroxyheptyl]-1H-1,2,4-triazole-5(4H)-thione]",0%
9,"CC(C)(C)C(O)(CCCCCOc1ccccc1Cl)Cn1nc[nH]c1=S (stereo not drawn) [Example 16, 1-[2-tert-butyl-7-(2-chlorophenoxy)-2-hydroxyheptyl]-1H-1,2,4-triazole-5(4H)-thione]",0%
10,"CC(C)(C)C(O)(CCCCCOc1cccc(Cl)c1)Cn1nc[nH]c1=S (stereo not drawn) [Example 17, 1-[2-tert-butyl-7-(3-chlorophenoxy)-2-hydroxyheptyl]-1H-1,2,4-triazole-5(4H)-thione]",0%
11,"CC(C)(C)C(O)(CCCCCOc1ccc(Cl)cc1)Cn1nc[nH]c1=S (stereo not drawn) [Example 18, 1-[2-tert-butyl-7-(4-chlorophenoxy)-2-hydroxyheptyl]-1H-1,2,4-triazole-5(4H)-thione]",0%
12,"Cc1ccc(OCCCCCC(O)(Cn2nc[nH]c2=S)C(C)(C)C)cc1 (stereo not drawn) [Example 20, 1-[2-tert-butyl-7-(4-methylphenoxy)-2-hydroxyheptyl]-1H-1,2,4-triazole-5(4H)-thione]",0%
